The results in this text go back to patent US20090226907A1, “ASSAY FOR DETECTION OF TELOMERASE ACTIVITY” (Sienna Cancer Diagnostics Limited, priority 2005, published 2009).

{SH-C6} = thiol hexyl linker

The target in this data set is T1, telomerase (Homo sapiens, UniProt O14746).
T1 construct: showing the effect of TBT oligonucleotide length in HEK293T cell lysates; endogenous in cells; host or cells: HEK293T cell lysate (CHAPS lysis buffer)
Description: TBT telomerase assay: effect of oligonucleotide length in HEK293T cell lysates. Type of data set: biochemical. Conditions: luminescence, compared with short (0.5 repeat) and 2.5 repeat versions, FIG. 16. The source says:
FIG. 16 is a graphical representation showing the effect of TBT oligonucleotide length in HEK293T cell lysates. […]

T1 sequence (O14746 whole entry): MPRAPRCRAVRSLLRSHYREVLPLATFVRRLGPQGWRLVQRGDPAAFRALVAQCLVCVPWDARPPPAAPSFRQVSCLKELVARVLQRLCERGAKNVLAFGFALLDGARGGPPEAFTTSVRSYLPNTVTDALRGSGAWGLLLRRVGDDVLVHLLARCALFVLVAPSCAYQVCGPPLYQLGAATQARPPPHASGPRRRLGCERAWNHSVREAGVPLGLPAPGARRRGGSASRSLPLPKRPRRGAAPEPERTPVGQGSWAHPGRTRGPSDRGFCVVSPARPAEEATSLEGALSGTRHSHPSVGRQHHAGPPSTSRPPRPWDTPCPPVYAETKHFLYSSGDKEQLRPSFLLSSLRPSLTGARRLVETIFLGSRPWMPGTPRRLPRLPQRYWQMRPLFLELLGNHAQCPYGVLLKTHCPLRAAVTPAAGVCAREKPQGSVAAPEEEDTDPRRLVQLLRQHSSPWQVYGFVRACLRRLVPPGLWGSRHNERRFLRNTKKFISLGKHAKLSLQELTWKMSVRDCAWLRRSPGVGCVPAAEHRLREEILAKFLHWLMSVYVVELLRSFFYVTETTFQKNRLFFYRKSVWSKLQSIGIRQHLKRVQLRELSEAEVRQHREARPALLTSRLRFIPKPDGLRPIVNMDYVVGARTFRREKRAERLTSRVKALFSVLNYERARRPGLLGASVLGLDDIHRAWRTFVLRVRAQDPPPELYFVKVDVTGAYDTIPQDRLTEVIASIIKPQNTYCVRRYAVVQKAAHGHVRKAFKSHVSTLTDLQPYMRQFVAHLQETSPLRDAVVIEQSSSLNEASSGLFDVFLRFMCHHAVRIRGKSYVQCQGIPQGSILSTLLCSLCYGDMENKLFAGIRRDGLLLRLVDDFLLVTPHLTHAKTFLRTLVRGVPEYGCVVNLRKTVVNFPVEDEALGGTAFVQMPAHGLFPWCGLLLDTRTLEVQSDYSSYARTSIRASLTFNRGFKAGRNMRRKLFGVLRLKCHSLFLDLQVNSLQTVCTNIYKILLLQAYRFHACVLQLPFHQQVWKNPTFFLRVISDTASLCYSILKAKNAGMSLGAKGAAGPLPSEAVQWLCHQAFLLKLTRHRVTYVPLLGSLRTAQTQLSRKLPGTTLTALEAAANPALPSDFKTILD
T1 sequence (O60832 whole entry partner): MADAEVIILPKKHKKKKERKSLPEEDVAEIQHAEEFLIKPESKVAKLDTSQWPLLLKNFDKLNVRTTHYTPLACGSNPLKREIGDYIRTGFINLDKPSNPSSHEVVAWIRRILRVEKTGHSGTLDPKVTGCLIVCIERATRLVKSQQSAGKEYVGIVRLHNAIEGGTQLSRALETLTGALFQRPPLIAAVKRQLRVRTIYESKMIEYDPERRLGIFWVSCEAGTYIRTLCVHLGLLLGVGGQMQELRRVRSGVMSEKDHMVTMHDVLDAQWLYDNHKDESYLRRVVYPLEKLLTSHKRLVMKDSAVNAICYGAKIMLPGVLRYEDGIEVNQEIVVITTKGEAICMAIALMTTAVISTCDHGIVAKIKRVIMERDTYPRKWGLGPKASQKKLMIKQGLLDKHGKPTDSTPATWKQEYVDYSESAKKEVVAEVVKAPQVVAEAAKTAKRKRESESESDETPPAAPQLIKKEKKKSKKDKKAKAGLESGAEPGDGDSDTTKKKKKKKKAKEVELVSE
T1 sequence (Q9NPE3 whole entry partner): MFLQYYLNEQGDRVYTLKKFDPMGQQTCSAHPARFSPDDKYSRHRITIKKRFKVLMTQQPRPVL
T1 sequence (Q9NX24 whole entry partner): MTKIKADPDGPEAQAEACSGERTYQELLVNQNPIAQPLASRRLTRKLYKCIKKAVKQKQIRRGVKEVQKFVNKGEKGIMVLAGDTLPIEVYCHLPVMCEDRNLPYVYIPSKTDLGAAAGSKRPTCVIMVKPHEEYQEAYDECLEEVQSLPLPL
T1 sequence (Q9NY12 whole entry partner): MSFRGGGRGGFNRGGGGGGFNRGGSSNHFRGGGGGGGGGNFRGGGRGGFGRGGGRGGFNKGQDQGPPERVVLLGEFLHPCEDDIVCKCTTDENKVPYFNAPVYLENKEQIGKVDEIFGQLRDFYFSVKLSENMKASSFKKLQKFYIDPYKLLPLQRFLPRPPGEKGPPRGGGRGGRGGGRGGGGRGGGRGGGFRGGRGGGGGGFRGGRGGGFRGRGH
T1 sequence (Q9BUR4 whole entry partner): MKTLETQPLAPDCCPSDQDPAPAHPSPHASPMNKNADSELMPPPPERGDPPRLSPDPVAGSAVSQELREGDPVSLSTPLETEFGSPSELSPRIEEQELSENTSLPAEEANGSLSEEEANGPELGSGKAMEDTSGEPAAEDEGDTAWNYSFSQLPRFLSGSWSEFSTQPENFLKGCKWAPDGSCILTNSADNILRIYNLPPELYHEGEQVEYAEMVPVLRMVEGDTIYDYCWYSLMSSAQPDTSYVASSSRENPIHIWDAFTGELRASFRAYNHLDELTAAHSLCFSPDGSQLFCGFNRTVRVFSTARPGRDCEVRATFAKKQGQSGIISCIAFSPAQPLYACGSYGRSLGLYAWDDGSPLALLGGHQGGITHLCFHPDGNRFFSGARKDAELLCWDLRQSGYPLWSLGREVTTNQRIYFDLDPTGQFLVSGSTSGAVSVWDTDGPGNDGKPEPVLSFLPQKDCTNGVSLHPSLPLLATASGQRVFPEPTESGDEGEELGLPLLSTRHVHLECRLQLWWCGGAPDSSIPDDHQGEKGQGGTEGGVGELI

Regarding “5′SH-(CH2)6-TTTTTTAATCCGTCGAGCAGAGTTAGGGTTAGGGTTAGG GTTAGGGTTAG (DNA TTTTTTAATCCGTCGAGCAGAGTTAGGGTTAGGGTTAGGGTTAGGGTTAG; DNA, 5' {SH-C6}, backbone and methylation of C not given here; bead-immobilized telomerase substrate oligo; listed as Homo sapiens) [longer version]”, the “absolute signal relative to the background signal (no telomerase extract)” value was “better absolute signal relative to the background signal”.
